Experimental data as given in the SangsterLogP compilation.

Assay: from Savola, J.; Ruskoaho, H.; Salonen, J.; Puurunen, J.; Karjalainen, A.; Kurkela, K.; Karki, N. (1988). Cardiovascular and sedative alpha-adrenoceptor effects of detomidine-like arylalkylimidazoles and …
Conditions: pH 7.4

SMILES	logD
Cc1cccc(Cc2c[nH]cn2)c1	2.21
Cc1ccc(Cc2c[nH]cn2)cc1C	2.54
Cc1cccc(C)c1Cc1cnc[nH]1	2.54
Cc1cccc(C)c1Cc1ccccn1	3.48
Cc1ccccc1Cc1c[nH]cn1	2.13
Cc1cccc(Cc2c[nH]cn2)c1C	2.5
Cc1cccc(C)c1CCn1ccnc1	2.51
Cc1cccc(C)c1CCc1ncc[nH]1	2.2
Cc1cccc(C)c1CCCCc1c[nH]cn1	3.3
Cc1cc(C)cc(Cc2c[nH]cn2)c1	2.34
Cc1cccc(C)c1/C=C/c1c[nH]cn1	3.35
Cc1cccc(C)c1-c1c[nH]cn1	2.38
Cc1cccc(C)c1CCc1c[nH]cn1	2.73
Cc1ccc(Cc2c[nH]cn2)c(C)c1	2.52
Cc1cccc(C)c1CCCc1c[nH]cn1	2.87
Cc1ccc(C)c(Cc2c[nH]cn2)c1	2.54
